Series [1] concerns rhesus monkeys with spontaneous chronic kidney disease. The series can be described thus: Effect on serum K+, 8-week administration. The following applies: Valsartan group (n = 3). As to the method: In the trial, animals were brought in three stages. In the first stage, there were two groups: 3 animals (No. 257, No. 4721, No. 287) in a group with 5 mg/kg of the malate of compound of formula I, and 2 animals (No. 1029, No. 4713) in the placebo group. […] In the third stage, there were two groups: 5 animals (No. 4829, No. 6501, No. 287, No. 4721, No. 2091) in a group with 2 mg/kg of the malate of compound of formula I, and 5 animals (No. 1567, No. 4861, No. 5453, No. 6653, No. 5073) in a group with 1 mg/kg of the malate of compound of formula I.
Serum potassium, twice before administration, once every 2 weeks during the administration period;
Blood biochemical and urine index detection equipment: Roche cobas6000 analyzer series C501 module detection. ELISA kit was used for NT-proBNP test.

A short description of series [2]: 4-week safety study: toxicokinetics (plasma AUC0-24h, Cmax). The class given is in vivo, cynomolgus monkeys. On the procedure:
Blood samples were obtained on day1 and day26 at 0, 0.5, 1.5, 3, 5, 7 and 24 h after administration. On each occasion, approximately 1.0 mL of blood was drawn from the vein and collected into EDTA-K2 anticoagulant tubes. The blood samples were put on ice and then centrifuged (3500 rpm, 5 min) at 4° C. to obtain plasma samples, which were kept frozen at about −80° C. until analysis. Toxicokinetics determination of the compound of Formula I was conducted at the Institute of Materia Medica, Chinese Academy of Sciences (Shanghai, China).

This note sets out measurements from US20230330093A1, “APPLICATION OF NITROGEN-CONTAINING SATURATED HETEROCYCLIC COMPOUND” (SHANGHAI PHARMACEUTICALS HOLDING CO., LTD., priority 2020, published 2023).

Several values for one entry are separate records, joined by “and”; a condition that tells them apart may be missing. Equal entries are not always repeated.

Consider `CCCCC(=O)N(Cc1ccc(-c2ccccc2-c2nnn[nH]2)cc1)[C@H](C(=O)O)C(C)C` [Valsartan, reference compound], for which the “K^+” value is 5.09 ± 0.54 mmol/L in series [1] (2 weeks, Mean ± SD); 5.38 mmol/L and 4.47 mmol/L and 5.43 mmol/L in series [1] (2 weeks, individual animals); 5.04 ± 0.58 mmol/L in series [1] (4 weeks, Mean ± SD); 5.68 mmol/L and 4.55 mmol/L and 4.88 mmol/L in series [1] (4 weeks, individual animals); 5.06 ± 0.24 mmol/L in series [1] (6 weeks, Mean ± SD); 5.28 mmol/L and 4.81 mmol/L and 5.09 mmol/L in series [1] (6 weeks, individual animals). The “K^+” value in series [1] (8 weeks, Mean ± SD) was 5.13 ± 0.74 mmol/L; in series [1] (8 weeks, individual animals), 5.94 mmol/L and 4.50 mmol/L and 4.95 mmol/L; in series [1] (Baseline 1, Mean ± SD), 4.37 ± 0.54 mmol/L; in series [1] (Baseline 1, individual animals), 4.94 mmol/L and 3.86 mmol/L and 4.31 mmol/L; in series [1] (Baseline 2, Mean ± SD), 4.66 ± 0.40 mmol/L; in series [1] (Baseline 2, individual animals) it was 4.63 mmol/L and 4.27 mmol/L and 5.07 mmol/L.

As to `COC(=O)NCCCn1nc([C@@H](C)N(C(=O)[C@H]2CNCCO2)C2CC2)c2ccc(C)nc21` [compound of Formula I], the accumulation entry in series [2] (after consecutive 28 days of administration) is “the accumulation was not apparent”. The “Systemic exposure (plasma AUC0-24h and Cmax of parent compound and main metabolite) vs dose” value in series [2] (dose range of 20 to 450 mg/kg) is on record as “proportionately greater than the magnitude of the dose increments”.
